From patent US8008232B2, “Pyrazolecarboxanilides, process for their preparation and compositions comprising them for controlling harmful fungi” (BASF Aktiengesellschaft, priority 2005, dated 2011)

System: Botrytis cinerea
Assay: Activity against gray mold on bell pepper leaves caused by Botrytis cinerea, protective application (also comparative experiment)
Assay type: in vivo
Settings: 5 days, untreated 90
Description: The active compounds were prepared as a stock solution comprising 25 mg of active compound which was made up to 10 ml using a mixture of acetone and/or dimethyl sulfoxide and the emulsifier Uniperol® EL (wetting agent having an emulsifying and dispersing action based on ethoxylated alkylphenols) in a volume ratio of solvent/emulsifier of 99:1. The mixture was then made up to 100 ml with water. This stock solution was diluted with the solvent/emulsifier/water mixture described to give the desired concentration of active compounds.
Activity Against Gray Mold on Bell Pepper Leaves Caused by Botrytis cinerea, Protective Application
Bell pepper seedlings of the cultivar “Neusiedler Ideal Elite” were, after 2-3 leaves were well developed, sprayed to runoff point with an aqueous suspension having the concentration of active compounds stated below. The next day, the treated plants were inoculated with a spore suspension of Botrytis cinerea which comprised 1.7×10^6 spores/ml in a 2% strength aqueous biomalt solution. The test plants were then placed into a dark climatized chamber at 22-24° C. and high atmospheric humidity. After 5 days, the extent of the fungal infection on the leaves could be determined visually in %.
Comparative Experiment—Activity Against Gray Mold on Bell Pepper Leaves Caused by Botrytis cinerea, Protective Application
Compound No. 47 of Table 1 from EP-A 0 589 301 was compared to compounds 9.17 and 9.20 according to the invention from Table 9.

Row | Compound | Infection in % at 250 ppm at BOTRCI P1
1 | Cc1nn(C)cc1C(=O)Nc1ccccc1-c1ccc(F)c(Cl)c1 [9.17] | 5%
2 | Cc1nn(C)cc1C(=O)Nc1ccccc1-c1ccc(F)cc1F [9.20] | 7%
3 | Cc1nn(C)cc1C(=O)Nc1ccccc1-c1ccc(F)cc1 [Comp. 47, reference compound] | 60%
